According to paper PMC11259170, “Small-molecule probe for IBD risk variant GPR65 I231L alters cytokine signaling networks through positive allosteric modulation” (Science Advances, 2024):
Like-named read-outs stand apart in the source and are kept apart here.

Key:
hGPR65 [1] = biological target: T1, hGPR65 (Homo sapiens, UniProt Q8IYL9); test: cAMP detection in HeLa expression cell line, hGPR65; format: cell-based; details: for activity for hGPR65 among prioritized molecules: 1.56 μM; for Emax: HeLa, relative to 100uM forskolin (100%) and DMSO (0%), read-out: hGPR Max Activity %
T1 construct: expressed in transfected cells; host or cells: HeLa (ATCC CCL-2), lentiviral transduction, pLX317
Procedure, shortened: (§1)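 HeLa cells stably expressing C-terminally V5-tagged receptor or GFP (lentiviral, puromycin 3 μg/ml) stimulated at 1500 cells per well for 30 min at RT with compound (10 mM DMSO stock) in stimulation buffer at pH 7.2. cAMP detected by Lance Ultra TR-FRET after lysis and 1 h detection, excitation 337 nm, emission 620/665 nm.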

mGPR65 = biological target: T2, mGPR65 (Mus musculus, UniProt Q61038); test: cAMP detection in HeLa expression cell line, mGPR65; format: cell-based; details: for activity for mGPR65 among prioritized molecules: 1.56 μM; for activity for mGPR65 among prioritized molecules / cAMP activity, mGPR65: pH 7.2; for Emax: HeLa, relative to 100uM forskolin (100%) and DMSO (0%), read-out: mGPR Max Activity %; for EC50: mGPR EC50 (uM)
T2 construct: expressed in transfected cells; host or cells: HeLa (ATCC CCL-2), lentiviral transduction, pLX317
Procedure, shortened: as §1

[2] = Solubility in phosphate buffer; format: physicochemical; details: read-out: Solubility
Lipophilicity (logD) = format: physicochemical; details: pH 7.4; pH7.4; read-out: LogD (pH7.4)
human GPR4 (hGPR4) = biological target: T3, human GPR4 (hGPR4) (Homo sapiens, UniProt P46093); test: cAMP detection in HeLa expression cell line, hGPR4; format: cell-based; details: highest concentration tested
T3 construct: expressed in transfected cells; host or cells: HeLa (ATCC CCL-2), lentiviral transduction, pLX317
Procedure: HeLa stable expression cell lines were produced by lentiviral transduction. Briefly, lentiviral plasmids for each GPCR with a C-terminal V5 Tag ([…]) were made in a pLX317 backbone using competent Escherichia coli (New England Biolabs, C3050H). Lenti-X 293 T (Takara, 632810) cells were transfected with the lentiviral plasmids to produce virus. Low-passage HeLa cells (American Type Culture Collection, CCL-2) were then transduced with lentivirus. After 48 hours, HeLa cells were cultured under selection with puromycin (3 μg/ml) and allowed to recover and expand before storing stocks in liquid nitrogen.
cAMP was measured in cells using the Lance Ultra cAMP Kit. HeLa cells were cultured under puromycin (3 μg/ml) selection. One day before the experiment, cells were seeded in T75 flasks and allowed to adhere overnight. On the day of the experiment, cells were washed twice with Dulbecco’s PBS and lifted using prewarmed 1× versene solution (Gibco, 15040066). Cells were counted in HBSS (Gibco, 14025092) and then resuspended in stimulation buffer prepared according to the manufacturer’s instructions and adjusted to pH 7.2 using 1 M sodium hydroxide. Cells were added to the plate at a density of 1500 cells per well in white opaque 384-well assay ready microplates containing 100 nl of 10 mM compound in DMSO. Cells were stimulated for 30 min at RT, then lysed and incubated with detection reagents for 1 hour in the dark at RT. Plates were read on BMG Labtech PHERAstar FSX (excitation, 337 nm; emission, 620 and 665 nm). Data analysis was performed using GraphPad Prism.

hGPR65-SmBiT = biological target: T4, hGPR65-SmBiT (Homo sapiens, UniProt Q8IYL9); test: Nano-BiT target engagement, LgBiT-mGs recruitment to hGPR65-SmBiT in Expi293F cells; format: cell-based; details: isoproterenol treatment
T4 construct: expressed in transfected cells; host or cells: Expi293F (Gibco), transient transfection
Procedure: Target engagement was measured in Expi293F (Gibco, 100044202) cells using the Nano-Glo Live Cell Assay System (Promega, N2011). Nano-BiT plasmids were cloned from GPR65-, GPR4-, and GPR68-Tango plasmids. GPR65-Tango (Addgene plasmid # 66370; http://n2t.net/addgene:66370; RRID:Addgene_66370), GPR4-Tango (Addgene plasmid # 66358; http://n2t.net/addgene:66358; RRID:Addgene_66358), and GPR68-Tango (Addgene plasmid # 66371; http://n2t.net/addgene:66371; RRID:Addgene_66371) were gifts from Bryan Roth. Expi293F cells were transfected 1 day before kinetics with 500 ng of each plasmid using ExpiFectamine 293 Transfection Kit (Gibco, A14525). After 24 hours, cells were collected, washed, and resuspended in room temperature 0.1% PBS-BSA, adjusted to pH 7.4 using 1 M NaOH. Cells were transferred to white opaque 96-well microplates (100 μl per well, PerkinElmer, 6005290), followed by addition of the Nano-Glo Live Cell Reagent (25 μl per well). Baseline luminescence was measured for 10 cycles (1 cycle = 90 s) before adding compounds. All luminescence measurements were made on BMG Labtech PHERAstar FSX. Data analysis was performed using GraphPad Prism.

hGPR65 [3] = biological target: T1, hGPR65; test: cAMP detection (Lance Ultra), GPR65 KO HeLa reconstituted with hGPR65; 21K screen dose confirmation; format: cell-based; details: HeLa GPR65 KO + hGPR65, pH 7.1, 30 min, normalized to DMSO and 100 μM forskolin; read-out: WT EC50
Procedure: (§2) The Lance Ultra cAMP Kit (PerkinElmer, TRF0264) was used for cAMP detection, and included the following reagents: ULight anti-cAMP antibody, Eu-cAMP tracer, 7.5% BSA Stabilizer solution, and cAMP detection buffer. Stimulation buffer was prepared as described by the kit manufacturer as follows: Hanks buffered saline solution (HBSS, Life Technologies, 14025-126) containing 0.5 mM IBMX (3-isobutyl-1-methylxanthine, Sigma-Aldrich, I7018) and buffered with 1 M Hepes (15630-080). Stimulation buffer was then adjusted to pH 7.1 using 12 N HCl. HeLa cells were lifted using Versene and then suspended at 2.5 × 10^5 cells/ml in stimulation buffer. Cells were then plated at 20 μl per well (5000 cells per well) in white, opaque OptiPlate 384-well MicroPlates (PerkinElmer, 6007299) using a Thermo Fisher Scientific Combi liquid dispenser. Compounds, stored at 5 mM in DMSO for the primary screen, or in a range of concentrations from 39 μM to 20 mM for dose curves, were transferred by the CyBio CyBi-Well Vario pin transfer tool with 100-nl pins (V&P FP1NS50H, 50-nl slot, 0.457-mm diameter, hydrophobic coated), into each assay well, 100 nl per well for a final assay concentration of 25 μM for the primary screen, or 195 nM to 100 μM for dose curves. Assay plates were then incubated at RT for 30 min. Eu-cAMP tracer was diluted 1:33 into detection buffer and the final solution then distributed into assay wells, 5 μl per well. ULight anti-cAMP antibody was diluted 1:100 into detection buffer, then distributed into assay wells, also 5 μl per well. Assay plates were then incubated at RT in the dark for 1 hour. Eu-cAMP tracer and Förster resonance energy transfer (FRET) emissions were then read using a PerkinElmer EnVision Multimode plate reader (ENVISION21040010), exciting each well at 320 nm [UV2 (TRF) 320 filter] and reading emissions at 615 nm (Europium 615 filter) and 665 nm (APC665 filter). Data analysis was performed using Genedata Screener and GraphPad Prism.
(§3) HeLa KO cell lines were generated using the px330 plasmid CRISPR system as previously described ([18]). Briefly, HeLa cells were transfected with a Cas9 vector containing a gene-specific single-guide RNA to target the GPR65 coding exon. Forty-eight to 72 hours after transfection, single clones were obtained through limiting dilution and then sequenced to validate the KO. Reconstituted cell lines were produced by transducing KO cells with empty lentivirus or lentivirus containing hGPR65 or mGPR65. After 48 hours, cells were treated with puromycin (3 μg/ml; InvivoGen, ant-pr-1) and resistant cells were used in experiments.

[4] = tested on: GPR65 KO HeLa cells + pLX empty vector; test: cAMP detection, GPR65 KO HeLa + empty pLX vector (null control); format: cell-based, human; details: HeLa GPR65 KO + pLX, pH 7.1, 30 min, normalized to DMSO and 100 μM forskolin
Procedure: as §2, §3

[5] = tested on: GFP-expressing HeLa cells; test: cAMP detection in HeLa expression cell line, GFP control; format: cell-based, human; details: Homo sapiens, HeLa, NA = no activity; for Emax: relative to 100uM forskolin (100%) and DMSO (0%), read-out: GFP Max Activity %
Procedure, shortened: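 TR-FRET cAMP read-out (Lance Ultra; ex 337 nm, em 620 and 665 nm) after 1 h detection in the dark, following a 30 min RT stimulation of 1500 cells per well in pH 7.2 stimulation buffer with compound supplied as 10 mM DMSO stock. Cells: lentivirally transduced HeLa lines carrying V5-tagged GPCR or GFP, kept under 3 μg/ml puromycin.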

[6] = 1st hGPR column pair, NA = no activity
[7] = 2nd hGPR column pair, NA = no activity
[8] = hGPR EC50 (uM), NA = no activity
[9] = 2nd mGPR column pair, NA = no activity
[10] = first pair of columns, pH 7.2, 30 min
[11] = second pair of columns, pH 7.2, 30 min

T2 sequence (Q61038 whole entry): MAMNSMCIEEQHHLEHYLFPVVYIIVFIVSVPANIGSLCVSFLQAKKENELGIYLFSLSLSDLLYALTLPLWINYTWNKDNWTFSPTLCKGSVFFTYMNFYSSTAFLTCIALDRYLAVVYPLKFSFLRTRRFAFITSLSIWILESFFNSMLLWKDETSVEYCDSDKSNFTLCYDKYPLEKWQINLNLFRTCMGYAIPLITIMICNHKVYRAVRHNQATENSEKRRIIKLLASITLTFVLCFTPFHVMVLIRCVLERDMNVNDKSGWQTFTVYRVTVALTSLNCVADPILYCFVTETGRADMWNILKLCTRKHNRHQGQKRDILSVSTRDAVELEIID
T1 sequence (Q8IYL9 whole entry): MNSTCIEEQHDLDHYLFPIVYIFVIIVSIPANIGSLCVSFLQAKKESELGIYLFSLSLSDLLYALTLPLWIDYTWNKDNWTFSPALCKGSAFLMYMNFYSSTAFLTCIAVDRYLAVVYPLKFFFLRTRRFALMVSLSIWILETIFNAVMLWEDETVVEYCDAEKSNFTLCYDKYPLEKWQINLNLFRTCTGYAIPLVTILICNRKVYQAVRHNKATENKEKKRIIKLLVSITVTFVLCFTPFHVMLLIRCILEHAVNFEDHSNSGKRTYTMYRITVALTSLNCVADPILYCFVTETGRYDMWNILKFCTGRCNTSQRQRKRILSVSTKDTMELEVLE
T3 sequence (P46093 whole entry): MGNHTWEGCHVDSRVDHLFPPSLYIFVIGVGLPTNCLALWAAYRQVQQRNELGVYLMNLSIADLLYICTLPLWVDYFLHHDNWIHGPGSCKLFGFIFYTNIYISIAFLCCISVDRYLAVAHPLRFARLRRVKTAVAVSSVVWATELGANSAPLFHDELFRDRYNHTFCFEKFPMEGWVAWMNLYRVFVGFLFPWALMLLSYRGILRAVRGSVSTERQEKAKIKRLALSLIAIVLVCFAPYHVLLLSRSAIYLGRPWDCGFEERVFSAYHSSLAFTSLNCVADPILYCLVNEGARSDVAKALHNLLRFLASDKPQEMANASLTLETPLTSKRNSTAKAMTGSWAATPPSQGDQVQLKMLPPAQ
T4 sequence (Q8IYL9 whole entry): as the sequence (Q8IYL9 whole entry) above

Row | SMILES | Emax (hGPR65 [1]; [6]) [%] | Emax (hGPR65 [1]; [7]) [%] | EC50 (hGPR65 [1]; [8]) [µM] | EC50 (hGPR65 [1]; hGPR EC50 (uM), pH 7.2, 30 min) [µM] | EC50 (hGPR65 [1]; hGPR EC50, NA = no activity) [µM] | EC50 (hGPR65 [1]; hGPR EC50, pH 7.2, 30 min) [µM] | cAMP activity, hGPR65 (hGPR65 [1]; pH 7.2) | Emax (mGPR65; [9]) [%] | Emax (mGPR65; NA = no activity) [%] | EC50 (mGPR65; [9]) [µM] | EC50 (mGPR65; [10]) [µM] | EC50 (mGPR65; [11]) [µM] | EC50 (mGPR65; NA = no activity) [µM] | cAMP activity, mGPR65 (mGPR65) | EC50 (hGPR65 [3]) [nM] | EC50 [4] [nM] | other results
1 | Cc1ccc(NC(=O)c2cnn3c(O)cc(-c4ccc(COC(C)C)cc4)nc23)cc1F [BRD5078, O=C(NC1=CC=C(C)C(F)=C1)C2=C3N(N=C2)C(O)=CC(C4=CC=C(COC(C)C)C=C4)=N3] | 80.5 | 73.3 | 0.229 | 0.347 | 0.351 | 0.264 | at least 40% | 51.5 | 53.6 | 0.944 | 0.477 | 0.29 | 0.332 | at least 40% | – | – | activity for hGPR65 (hGPR65 [1]): strong activity for hGPR65; activity for hGPR65 among prioritized molecules (hGPR65 [1]; pH 7.2): highest activity; activity for mGPR65 among prioritized molecules (mGPR65): highest activity; solubility [2]: < 1.56 µM; logD (Lipophilicity (logD)): > 4.96
2 | COCc1ccc(-c2cc(O)n3ncc(C(=O)Nc4ccc(C(C)C)cc4)c3n2)cc1 [BRD2166, COCc1ccc(cc1)-c1cc(O)n2ncc(C(=O)Nc3ccc(cc3)C(C)C)c2n1] | 75 | 73.7 | 2.08 | 2.94 | 2.12 | 2.85 | at least 40% | 31.2 | 39.3 | 0.347 | 0.618 | 0.372 | 0.362 | at least 40% | – | – | cAMP production relative to BRD2813, hGPR65 (hGPR65 [1]; pH 7.2): little effect on cAMP production; cAMP relative to DMSO in the hGPR4 cells (human GPR4 (hGPR4)): decrease in cAMP
3 | CC(C)NCC(O)c1ccc(O)c(O)c1 (stereo not shown) [isoproterenol, reference compound] | – | – | – | – | – | – | – | – | – | – | – | – | – | – | – | – | luminescence in hGPR65-SmBiT/LgBiT-mGs cells (hGPR65-SmBiT): did not elicit a change in luminescence
4 | O=C(O)CCCc1nc(-c2cccnc2)no1 [BRD-K41365409-001-02-6] | – | – | – | – | – | – | – | – | – | – | – | – | – | – | 41300 | 35700 | –
5 | Cc1nccn1-c1ccc(CN(Cc2cccnc2)C2CC(C)(C)NC(C)(C)C2)cc1 [BRD-K56921026-001-02-1] | – | – | – | – | – | – | – | – | – | – | – | – | – | – | 57000 | 50800 | –
6 | Cc1ccc(C(=O)Cn2c(=O)n(C(C)C)c3nc(-c4ccc(F)cc4)nc(C(N)=O)c32)cc1 [BRD-K81805280-001-02-6] | – | – | – | – | – | – | – | – | – | – | – | – | – | – | > 100000 | > 100000 | –
7 | c1ccc(-c2cc3ncnc(N4CCSCC4)c3s2)cc1 [BRD-K51028315-001-02-0] | – | – | – | – | – | – | – | – | – | – | – | – | – | – | > 100000 | > 100000 | –
8 | Cc1ccc(NC(=O)c2cnn3c(O)cc(-c4ccc(COC(C)C)cc4)nc23)cc1Cl [BRD5079, O=C(NC1=CC=C(C)C(Cl)=C1)C2=C3N(N=C2)C(O)=CC(C4=CC=C(COC(C)C)C=C4)=N3] | 81.1 | 82.5 | 0.428 | 0.348 | 0.564 | 0.417 | at least 40% | 48.8 | 57.5 | 0.276 | 0.345 | 0.591 | 0.604 | at least 40% | – | – | activity for hGPR65 (hGPR65 [1]): strong activity for hGPR65; activity for hGPR65 among prioritized molecules (hGPR65 [1]; pH 7.2): highest activity; activity for mGPR65 among prioritized molecules (mGPR65): highest activity; EC50 ([5]; 1st GFP column pair): 4310 nM; Emax ([5]; 1st GFP column pair): 1.78%; EC50 ([5]; 2nd GFP column pair): 1210 nM; Emax ([5]; 2nd GFP column pair): 2.88%; solubility [2]: < 1.56 µM; logD (Lipophilicity (logD)): > 4.23
